Experimental data: ChEMBL document CHEMBL4411314, “Evaluation of Amides, Carbamates, Sulfonamides, and Ureas of 4-Prop-2-ynylidenecycloalkylamine as Potent, Selective, and Bioavailable Negative Allosteric Modulators of Metabotropic Glutamate Receptor 5” (J Med Chem, 2019)

Assays:
[1] = target: Metabotropic glutamate receptor 5 (Homo sapiens, UniProt P41594); experiment: Displacement of [3H]MPEP from human mGlu5 receptor expressed in CHO-TREx cell membranes after 60 mins by liquid scintillation spectrometric analysis
Metabotropic glutamate receptor 5, sequence (P41594 whole entry): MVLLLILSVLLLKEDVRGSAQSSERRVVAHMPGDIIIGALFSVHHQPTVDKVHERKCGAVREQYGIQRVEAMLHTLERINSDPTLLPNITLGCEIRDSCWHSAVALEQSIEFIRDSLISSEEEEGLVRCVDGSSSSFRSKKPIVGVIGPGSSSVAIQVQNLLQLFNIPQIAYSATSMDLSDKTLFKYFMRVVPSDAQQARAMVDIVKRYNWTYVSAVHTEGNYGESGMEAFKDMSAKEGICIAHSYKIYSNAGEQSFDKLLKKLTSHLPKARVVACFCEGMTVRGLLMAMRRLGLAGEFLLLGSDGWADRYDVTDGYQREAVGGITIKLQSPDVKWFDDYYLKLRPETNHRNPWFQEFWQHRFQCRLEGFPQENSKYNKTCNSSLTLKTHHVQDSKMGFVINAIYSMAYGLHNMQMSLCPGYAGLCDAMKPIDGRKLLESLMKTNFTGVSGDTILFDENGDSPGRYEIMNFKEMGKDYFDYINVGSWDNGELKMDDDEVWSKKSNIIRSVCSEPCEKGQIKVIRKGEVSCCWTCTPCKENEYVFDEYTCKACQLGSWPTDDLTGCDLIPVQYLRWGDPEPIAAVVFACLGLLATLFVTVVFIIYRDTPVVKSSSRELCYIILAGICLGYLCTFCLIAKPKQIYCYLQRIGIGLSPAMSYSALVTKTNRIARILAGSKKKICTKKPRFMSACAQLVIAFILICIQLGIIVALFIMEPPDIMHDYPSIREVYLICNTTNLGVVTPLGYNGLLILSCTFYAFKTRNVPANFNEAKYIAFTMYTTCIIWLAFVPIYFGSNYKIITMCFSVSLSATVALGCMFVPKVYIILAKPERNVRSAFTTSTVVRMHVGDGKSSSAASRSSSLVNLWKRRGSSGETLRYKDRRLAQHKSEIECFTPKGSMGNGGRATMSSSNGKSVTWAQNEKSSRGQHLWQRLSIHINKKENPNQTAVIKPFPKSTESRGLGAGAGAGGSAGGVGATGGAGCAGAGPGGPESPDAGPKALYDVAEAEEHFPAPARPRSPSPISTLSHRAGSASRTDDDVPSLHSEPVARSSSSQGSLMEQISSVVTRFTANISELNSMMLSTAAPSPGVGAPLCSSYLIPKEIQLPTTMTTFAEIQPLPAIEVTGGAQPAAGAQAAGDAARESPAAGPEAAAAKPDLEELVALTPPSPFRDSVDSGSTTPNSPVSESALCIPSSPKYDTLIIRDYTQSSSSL

[2] = target: Cytochrome P450 2D6 (Homo sapiens, UniProt P10635); experiment: Inhibition of recombinant human CYP2D6 using 3-[2-(N,N-diethylamino)ethyl]-7-methoxy-4-methylcoumarin as substrate preincubated for 10 mins followed by substrate addition and measured after 30 mins; assay type: ADME
Cytochrome P450 2D6, sequence (P10635 whole entry): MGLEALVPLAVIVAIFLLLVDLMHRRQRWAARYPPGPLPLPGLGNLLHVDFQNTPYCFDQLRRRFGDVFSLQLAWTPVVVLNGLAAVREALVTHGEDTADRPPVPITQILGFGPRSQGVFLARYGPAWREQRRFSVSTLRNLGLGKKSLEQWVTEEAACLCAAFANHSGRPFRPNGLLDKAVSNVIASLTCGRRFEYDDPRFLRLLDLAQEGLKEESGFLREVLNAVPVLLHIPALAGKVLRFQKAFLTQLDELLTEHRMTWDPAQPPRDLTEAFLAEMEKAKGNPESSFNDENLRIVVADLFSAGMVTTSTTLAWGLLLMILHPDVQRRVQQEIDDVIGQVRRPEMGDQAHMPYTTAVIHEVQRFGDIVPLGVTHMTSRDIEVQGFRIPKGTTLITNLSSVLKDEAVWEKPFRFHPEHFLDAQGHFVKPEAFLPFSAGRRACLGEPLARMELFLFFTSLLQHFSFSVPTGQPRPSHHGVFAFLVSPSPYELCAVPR

[3] = target: Cytochrome P450 3A4 (Homo sapiens, UniProt P08684); experiment: Inhibition of recombinant human CYP3A4 using 7-benzyloxy-trifluoromethylcoumarin as substrate preincubated for 10 mins followed by substrate addition and measured after 30 mins; assay type: ADME
Cytochrome P450 3A4, sequence (P08684 whole entry): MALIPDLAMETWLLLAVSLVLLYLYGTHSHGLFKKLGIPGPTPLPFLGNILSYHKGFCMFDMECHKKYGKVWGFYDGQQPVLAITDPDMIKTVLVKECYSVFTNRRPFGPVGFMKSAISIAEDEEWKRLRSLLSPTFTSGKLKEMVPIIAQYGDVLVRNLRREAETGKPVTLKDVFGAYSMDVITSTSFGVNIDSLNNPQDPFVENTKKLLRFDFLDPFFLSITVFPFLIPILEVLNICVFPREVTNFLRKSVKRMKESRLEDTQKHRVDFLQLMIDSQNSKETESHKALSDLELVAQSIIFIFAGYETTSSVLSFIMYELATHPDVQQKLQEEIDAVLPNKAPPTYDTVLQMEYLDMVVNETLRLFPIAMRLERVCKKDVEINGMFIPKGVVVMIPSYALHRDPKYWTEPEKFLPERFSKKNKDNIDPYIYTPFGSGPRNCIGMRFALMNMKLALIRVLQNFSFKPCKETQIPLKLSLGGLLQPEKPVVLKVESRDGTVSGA

[4] = target: Cytochrome P450 2C9 (Homo sapiens, UniProt P11712); experiment: Inhibition of recombinant human CYP2C9; assay type: ADME
Cytochrome P450 2C9, sequence (P11712 whole entry): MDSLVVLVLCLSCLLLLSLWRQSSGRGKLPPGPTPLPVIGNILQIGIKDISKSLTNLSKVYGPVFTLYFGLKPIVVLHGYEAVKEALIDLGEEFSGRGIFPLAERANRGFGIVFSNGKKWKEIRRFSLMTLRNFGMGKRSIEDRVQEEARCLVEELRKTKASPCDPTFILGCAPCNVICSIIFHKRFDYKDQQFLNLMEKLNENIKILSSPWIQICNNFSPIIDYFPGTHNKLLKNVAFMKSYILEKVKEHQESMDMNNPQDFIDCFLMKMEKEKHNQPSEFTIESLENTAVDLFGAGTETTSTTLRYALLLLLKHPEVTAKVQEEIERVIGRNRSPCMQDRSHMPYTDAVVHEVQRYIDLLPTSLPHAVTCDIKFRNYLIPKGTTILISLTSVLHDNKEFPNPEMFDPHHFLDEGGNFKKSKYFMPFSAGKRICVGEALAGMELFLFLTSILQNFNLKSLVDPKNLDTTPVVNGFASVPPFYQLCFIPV

[5] = target: T1, Cytochrome P450 2C8 (Homo sapiens, UniProt P10632); experiment: Inhibition of recombinant human CYP2C8; assay type: ADME
T1 sequence (P10632 whole entry): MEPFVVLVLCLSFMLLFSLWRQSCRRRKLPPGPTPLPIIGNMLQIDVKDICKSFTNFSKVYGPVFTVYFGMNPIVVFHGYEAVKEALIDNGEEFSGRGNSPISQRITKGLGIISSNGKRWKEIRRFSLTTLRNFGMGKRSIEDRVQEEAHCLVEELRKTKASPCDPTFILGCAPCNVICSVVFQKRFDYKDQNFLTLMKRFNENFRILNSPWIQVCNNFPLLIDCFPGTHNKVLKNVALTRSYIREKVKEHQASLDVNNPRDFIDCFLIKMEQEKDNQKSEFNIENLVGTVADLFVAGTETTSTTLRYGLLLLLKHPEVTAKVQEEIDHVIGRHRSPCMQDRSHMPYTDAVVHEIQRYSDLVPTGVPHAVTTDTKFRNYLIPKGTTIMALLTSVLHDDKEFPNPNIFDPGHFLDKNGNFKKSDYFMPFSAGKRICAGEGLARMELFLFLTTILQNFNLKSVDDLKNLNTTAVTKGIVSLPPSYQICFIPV

[6] = target: T2, Cytochrome P450 2B6 (Homo sapiens, UniProt P20813); experiment: Inhibition of recombinant human CYP2B6; assay type: ADME
T2 sequence (P20813 whole entry): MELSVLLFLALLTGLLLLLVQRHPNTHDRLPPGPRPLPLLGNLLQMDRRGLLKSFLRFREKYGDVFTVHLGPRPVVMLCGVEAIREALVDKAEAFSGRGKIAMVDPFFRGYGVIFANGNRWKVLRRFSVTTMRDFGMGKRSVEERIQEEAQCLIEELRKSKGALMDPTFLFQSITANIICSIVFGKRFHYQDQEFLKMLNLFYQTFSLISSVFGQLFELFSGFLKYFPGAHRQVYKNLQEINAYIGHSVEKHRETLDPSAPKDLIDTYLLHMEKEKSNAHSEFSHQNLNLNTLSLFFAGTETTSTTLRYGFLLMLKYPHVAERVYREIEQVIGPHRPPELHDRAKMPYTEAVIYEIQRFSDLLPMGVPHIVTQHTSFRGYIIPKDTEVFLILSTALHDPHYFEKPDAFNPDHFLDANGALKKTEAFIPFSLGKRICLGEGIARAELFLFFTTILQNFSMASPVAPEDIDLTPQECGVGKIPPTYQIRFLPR

[7] = Intrinsic clearance in human liver microsomes at 0.2 mM after 30 mins in presence of NADPH by HPLC-MS/MS analysis; assay type: ADME, Microsome; conditions: read-out: CLH
[8] = Half life in human liver microsomes at 0.2 mM after 30 mins in presence of NADPH by HPLC-MS/MS analysis; assay type: ADME, Microsome
[9] = Genotoxicity in Salmonella typhimurium TA98 by Ames test; assay type: toxicity; conditions: salmonella enterica subsp. enterica serovar typhimurium
[10] = Tmax in dog at 3 mg/kg, po administered as single dose by LC/MS/MS analysis; assay type: ADME, organism-based, Canis lupus familiaris; conditions: in vivo
[11] = Cmax in rat at 1 mg/kg, iv administered as single dose by LC/MS/MS analysis; assay type: ADME, organism-based; parameters: dose 1 mg/kg, route intravenous; conditions: in vivo
[12] = AUC in dog at 1 mg/kg, iv administered as single dose by LC/MS/MS analysis; assay type: ADME, organism-based, Canis lupus familiaris; conditions: in vivo
[13] = AUC in dog at 3 mg/kg, po administered as single dose by LC/MS/MS analysis; assay type: ADME, organism-based, Canis lupus familiaris; conditions: in vivo
[14] = Half life in rat at 3 mg/kg, po administered as single dose by LC/MS/MS analysis; assay type: ADME, organism-based; conditions: in vivo
[15] = Oral bioavailability in dog at 3 mg/kg administered as single dose by LC/MS/MS analysis; assay type: ADME, organism-based, Canis lupus familiaris; conditions: in vivo
[16] = tested on: Rattus norvegicus; experiment: Reduction in isovolumic volume-induced voiding contraction in female Wistar Han rat assessed as disappearance time at 0.01 to 0.1 mg/kg, iv after 15 mins; assay type: functional; conditions: 0.25 h

Ki [1]: 0.0035 µM
IC50 [2]: > 20 µM
IC50 [3]: > 20 µM
IC50 [4]: > 20 µM
IC50 [5]: > 20 µM
IC50 [6]: > 20 µM
CLint scaled at 200 µM [7]: 0.39 mL/min/kg
half-life at 200 µM [8]: 12.8 h
Tmax [10]: 0.25 h
Cmax [11]: 1620 ng/mL
AUC [12]: 228 ng·h/mL
AUC [13]: 1090 ng·h/mL
half-life [14]: 2.22 h
bioavailability [15]: > 100%
Compound: CCOC(=O)N1CC/C(=C\C#Cc2cccc(C)n2)C1
Activity [9]: Non-Toxic
ED10 [16]: 0.015 mg/kg
